Experimental data: US5290795A, “Substituted urea compound and use” (Novo Nordisk N/A, priority 1990, dated 1994)

Tests used:
5-HT3 receptor [1] = molecular target: T1, 5-HT3 receptor (Cavia porcellus, UniProt O70212); experiment: Inhibition of 5-HT-induced contractions in isolated guinea pig ileum; assay type: cell-based; conditions: methysergide 10^-6 M, 20 min incubation, 5-HT contact time 30 sec, 37° C., read-out: A2 (concentration of the antagonist giving a dose ratio of 2) (converted)
T1 construct: the terminal 15 cm of ileum removed, and 1.5-2.0 cm lengths prepared and mounted in 10 ml organ baths; from tissue; host or cells: isolated guinea pig terminal ileum
T1 sequence (O70212 24-490 limits assumed): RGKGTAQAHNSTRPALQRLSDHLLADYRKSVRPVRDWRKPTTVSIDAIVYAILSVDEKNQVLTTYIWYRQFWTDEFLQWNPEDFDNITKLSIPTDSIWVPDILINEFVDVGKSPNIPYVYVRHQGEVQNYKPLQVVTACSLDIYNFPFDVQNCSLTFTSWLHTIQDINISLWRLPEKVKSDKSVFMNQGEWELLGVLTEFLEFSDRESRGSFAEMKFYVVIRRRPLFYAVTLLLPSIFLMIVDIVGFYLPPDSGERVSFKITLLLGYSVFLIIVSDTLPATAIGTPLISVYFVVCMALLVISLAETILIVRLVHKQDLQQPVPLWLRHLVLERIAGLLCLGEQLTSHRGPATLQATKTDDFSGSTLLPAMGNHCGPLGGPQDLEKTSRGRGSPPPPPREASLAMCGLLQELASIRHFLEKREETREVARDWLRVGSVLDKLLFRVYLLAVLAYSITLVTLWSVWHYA
Method: Inhibition of 5-HT-Induced Contractions in Isolated Guinea Pig Ileum
Compounds of formula (I) were tested for their 5HT3 -antagonist activity using the following method:
5-HT produces contractions of the guinea pig ileum via 2 different receptors. 1) direct contractions via 5-HT2 receptors on the muscle, 2) indirect contractions via 5-HT3 receptors on intrinsic gut neurones, producing acetylcholine release. By administering 5-HT to lengths of ileum in the presence of methysergide (to block 5-HT2 receptors) you can assay 5-HT3 receptor activity.
Guinea pigs were killed by means of cervical dislocation the terminal 15 cm of ileum removed, and 1.5-2.0 cm lengths prepared and mounted in 10 ml organ baths containing calcium deficient tyrodes of the following composition (mM) NaCl (136.9); KCl (2.68); CaCl2 (0.9); MgCl2 (1.05); NaCO3 (11.9); NaH2 PO4 (0.42); glucose (5.55) and containing methysergide (10^-6 M) maintained at 37° C. and gassed with 95% O2 and 5% CO2. The mechanical activity of the muscle was measured by a HSE 351 isometric transducer connected via a HSE bridge amplifier to a potentiometric pen recorder. […]
The maximum response to acetylcholine for each tissue is measured and the responses to 5-HT calculated as percentage maximum of the acetylcholine (Ach) maximum response in that tissue. The peak of the 5-HT response is measured. […]

5-HT3 receptor [2] = molecular target: T2, 5-HT3 receptor (Mus musculus, UniProt P23979); experiment: 5-HT3 receptor binding to N1E-115 neuroblastoma cells (3H-Quipazine displacement); conditions: for displacement of 3H-Quipazine binding: specificity of the assay, N1E-115 neuroblastoma cells, in words
T2 construct: Harvested cells were homogenized in Tris buffer; endogenous in cells; host or cells: N1E-115 mouse neuroblastoma cells
T2 sequence (P23979 24-489): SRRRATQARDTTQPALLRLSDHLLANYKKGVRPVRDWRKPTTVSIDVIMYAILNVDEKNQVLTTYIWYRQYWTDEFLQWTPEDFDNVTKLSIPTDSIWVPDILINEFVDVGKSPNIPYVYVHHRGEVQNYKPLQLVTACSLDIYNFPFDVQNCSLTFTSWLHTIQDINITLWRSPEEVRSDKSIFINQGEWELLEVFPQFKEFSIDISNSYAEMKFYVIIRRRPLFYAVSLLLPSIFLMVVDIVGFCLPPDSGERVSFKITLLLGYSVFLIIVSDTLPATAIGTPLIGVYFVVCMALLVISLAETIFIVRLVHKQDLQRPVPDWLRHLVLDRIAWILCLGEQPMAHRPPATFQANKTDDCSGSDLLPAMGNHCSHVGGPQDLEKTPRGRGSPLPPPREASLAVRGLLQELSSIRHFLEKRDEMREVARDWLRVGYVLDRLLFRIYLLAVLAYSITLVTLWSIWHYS
Method: 5-HT3 Receptor Binding to N1E-115 Neuroblastoma Cells
The binding of 3H-quipazine to N1E-115 neuroblastoma cells in-vitro was determined by a modification of the method of Hoyer and Neijt (Hoyer, D. and Neijt, H. C., 1988, Molecular Pharmacology, 33:303-309). […] The cells were grown to a density of 8-15×10^7 cells per bottle and harvested by vigorous shaking. Harvested cells were homogenized in Tris buffer (20 mm, pH=7.5) containing 154 mM NaCl using a Brinkmann Polytron. The homogenate was centrifuged at 900×g and the supernatant was used directly in the binding assay. The supernatant was diluted at a concentration of 2×10^6 cells per ml in Tris buffer. Binding assays consisted of 50 μL 3H-Quipazine (1 nM final concentration), 250 μL membrane suspension, and 200 μL drug or buffer. Nonspecific binding was determined by the addition of 10 μM MDL 72222. Tubes were incubated at […] for 60 minutes, followed by filtration through GFB filters under vacuum. The filters were then washed with ice-cold Tris buffer.

| Compound | Kb (5-HT3 receptor [1]) | IC50 (5-HT3 receptor [2]) | displacement of 3H-Quipazine binding (5-HT3 receptor [2]) |
| --- | --- | --- | --- |
| CN1[C@@H]2CCC[C@H]1C[C@@H](NC(=O)Nc1ccsc1-c1nc(C3CC3)no1)C2 [Example 4, N-(2-(3-Cyclopropyl-1,2,4-oxadiazol-5-yl)-3-thienyl)-N^1 - (endo-9-methyl-9-azabicyclo[3.3.1]non-3yl)urea] | 103 µM | 0.0067 µM |  |
| CCCCc1noc(-c2sccc2NC(=O)N[C@H]2C[C@H]3CCC[C@@H](C2)N3C)n1 [Example 7, N-(2-(3-Butyl-1,2,4-oxadiazol-5-yl)-3-thienyl)-N^1-(endo-9-methyl-9-azabicyclo[3.3.1]non-3-yl)urea] | 24.8 µM | 0.0023 µM |  |
| CCCN(CCC)C1CCc2cccc(O)c2C1 (stereo not shown) [Example 8-OH-DPAT] |  |  | inability |
| CN1[C@@H]2CC[C@H]1C[C@@H](OC(=O)c1c[nH]c3ccccc13)C2 [ICS 205-930] |  |  | potent displacers |
| CN1[C@@H]2CC[C@H]1C[C@@H](OC(=O)c1cc(Cl)cc(Cl)c1)C2 [MDL 72222] |  |  | potent displacers |
| O=C(c1ccc(F)cc1)C1CCN(CCn2c(=O)[nH]c3ccccc3c2=O)CC1 [ketanserin] |  |  | inability |
| c1ccc2nc(N3CCNCC3)ccc2c1 [quipazine] |  |  | potent displacers |
| COc1cc(N)c(Cl)cc1C(=O)NC1CN2CCC1CC2 (stereo not shown) [zacopride] |  |  | potent displacers |
